# In PMC4290723 (British Journal of Pharmacology, 2014):
# Where two headings read alike, the source gives them in different places.
# Target: T1, RoDH4 (also named RDH16) (Homo sapiens, UniProt O75452)
# T1 sequence (O75452 1-317): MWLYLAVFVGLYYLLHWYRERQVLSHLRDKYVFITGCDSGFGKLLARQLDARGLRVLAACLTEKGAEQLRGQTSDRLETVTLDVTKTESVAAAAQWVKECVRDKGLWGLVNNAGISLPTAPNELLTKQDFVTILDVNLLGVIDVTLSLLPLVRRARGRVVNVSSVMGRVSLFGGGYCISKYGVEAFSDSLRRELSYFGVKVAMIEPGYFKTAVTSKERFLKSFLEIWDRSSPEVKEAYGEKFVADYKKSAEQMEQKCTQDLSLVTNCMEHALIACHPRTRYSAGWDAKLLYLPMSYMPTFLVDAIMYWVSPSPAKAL
# Experiment: single-concentration ([…]) inhibition of allopregnanolone oxidation by membranes of RoDH4-transfected HEK293 cells
# Format: cell-based
remaining activity at 240 µM (HEK293; read-out: % control at 240 μM) [%],SMILES,"remaining activity at 240 µM (HEK293, read-out: % control at 240 μM) [%]"
,CN(C)CCCN1c2ccccc2CCc2ccccc21 [imipramine],25.45 ± 0.04
37.8 ± 0.95,NCCC(Oc1ccc(C(F)(F)F)cc1)c1ccccc1 (centres unmarked) [norfluoxetine],
